Test results published in US11166931B2, “Induction of arteriogenesis with an NO (nitric oxide) donor” (G. Pohl-Boskamp GmbH & Co. KG, priority 2012, dated 2021).
Entries after “also recorded” stand apart in the source; their conditions may differ.

What was measured:
Sprague-Dawley rats [1] = assay: Ventricular arrhythmias during FPO, Lown classification and VPB score; details: rat, in vivo
Sprague-Dawley rats [2] = assay: ST segment elevation (ECG) during final permanent LAD occlusion (FPO), rat repetitive ischemia protocol (RIP) arteriogenesis model; type: in vivo
Sprague-Dawley rats [3] = assay: Infarct size by TTC staining after final permanent occlusion; type: in vivo, rat
arteriogenesis = details: nitroglycerin: administered continuously; cited from earlier work

SMILES: O=[N+]([O-])O[C@H]1CO[C@H]2[C@@H]1OC[C@H]2O[N+](=O)[O-] [ISDN, isosorbide dinitrate]
- arrhythmias during FPO compared to controls (in words) (Sprague-Dawley rats [1]): less arrhythmias
- ST elevation / ECG parameters during FPO compared to controls (in words) (Sprague-Dawley rats [2]; rat, in vivo): non-significantly decreased; also recorded: decreases in ST elevation
- infarct size / infarct volume compared to other groups (in words) (Sprague-Dawley rats [3]; rat, in vivo): reduced infarct volumes

SMILES: O=[N+]([O-])OCC(CO[N+](=O)[O-])O[N+](=O)[O-] [NTG, nitroglycerin]
- arrhythmias during FPO compared to controls (in words) (Sprague-Dawley rats [1]): decreased serious arrhythmias
- ST elevation / ECG parameters during FPO compared to controls (in words) (Sprague-Dawley rats [2]; rat, in vivo): significantly attenuated ST elevation
- effect on arteriogenesis described in the art (in words) (arteriogenesis): not able to induce angiogenesis (neovascularisation) or arteriogenesis
- infarct volume decreased compared to the control group (Sprague-Dawley rats [3]; rat, in vivo): more than 50%

SMILES: CC(=O)Oc1ccccc1C(=O)O [ASA, acetyl salicylic acid]
- ST elevation / ECG parameters during FPO compared to controls (in words) (Sprague-Dawley rats [2]; 5 DAYS RIP): impairment of ECG parameters
- effect on arteriogenesis described in the art (in words) (arteriogenesis): inhibitor of arteriogenesis
- infarct size / infarct volume compared to other groups (in words) (Sprague-Dawley rats [3]; 5 DAYS RIP): increase of infarct volumes

SMILES: CC(=O)Oc1ccccc1C(=O)O [ASA+NTG-PLACEBO]
- VPB-Score (Sprague-Dawley rats [1]): 5.50
- rats with class IIIa arrhythmias (Lown) during FPO (Sprague-Dawley rats [1]): 16.7%
- rats with class IVb arrhythmias (Lown) during FPO (Sprague-Dawley rats [1]): 83.3%
- Infarct size (percentage of the area of the left ventricle) (Sprague-Dawley rats [3]; rat, in vivo): 13.92 ±1.71%
